Where a name gives a salt, the structure may show the parent alone.
System: MTT (mouse pheochromocytoma)
Assay: IC50 of cell viability (ATP content)
Settings: (24 or 48 h)
Procedure, shortened: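 MTT mouse pheochromocytoma cells in white 1536-well plates were treated for 24 or 48 hrs with library compounds at 8 final concentrations from 0.5 nM to 46 µM. ATP content was measured with CellTiter-Glo luminescence, using positive-control wells as 100% and DMSO wells as 0%. IC50 came from a four-parameter logistic fit.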

Structure (SMILES)	IC50 of cell viability
COC(=O)C(Cc1ccccc1)NC(=O)C(N)CC(=O)O (stereo not drawn) [ASPARTAME]	> 46 µM
CNC(=O)C[C@@H](N)C(=O)N[C@@H](C(=O)N[C@@H]1C(=O)N2[C@@H]1SC(C)(C)[C@@H]2C(=O)O)c1ccc(O)cc1 [ASPOXICILLIN]	> 46 µM
CO[C@H]1[C@@H](O)[C@H](N)[C@@H](O[C@H]2O[C@@H]([C@H](C)N)CC[C@H]2N)[C@H](O)[C@@H]1N(C)C(=O)CN [ASTROMICIN SULPHATE]	> 46 µM
CN1[C@@H]2CC[C@@H]1CC(OC(=O)[C@H](CO)c1ccccc1)C2 (stereo partly drawn) [ATROPINE]	> 46 µM
OCC1OC([S][Au])[C@H](O)C(O)C1O (stereo partly drawn) [AUROTHIOGLUCOSE]	> 46 µM
CCC(C)C1O[C@]2(C=CC1C)CC1CC(C/C=C(\C)[C@H](OC3CC(OC)C(O[C@H]4CC(OC)[C@@H](O)C(C)O4)C(C)O3)[C@@H](C)/C=C/C=C3\COC4C(O)C(C)=C[C@H](C(=O)O1)[C@@]34O)O2 (stereo partly drawn) [AVERMECTIN B1]	> 46 µM
CC[C@H](C)[C@H](NC(=O)[C@H](CO)NC(=O)[C@H](CC(N)=O)NC(=O)[C@H](CC(C)C)NC(=O)[C@H](Cc1ccc(O)cc1)NC(=O)[C@H](CCCCN)NC(=O)[C@H](CCCCN)NC(=O)[C@@H](NC(=O)[C@H](C)NC(=O)[C@H](CCSC)NC(=O)[C@H](CCC(N)=O)NC(=O)[C@H](CCCCN)NC(=O)[C@H](CCCNC(=N)N)NC(=O)[C@H](CC(C)C)NC(=O)[C@H](CCCNC(=N)N)NC(=O)[C@@H](NC(=O)[C@H](Cc1ccc(O)cc1)NC(=O)[C@H](CC(N)=O)NC(=O)[C@H](CC(=O)O)NC(=O)[C@@H](NC(=O)[C@H](Cc1ccccc1)NC(=O)[C@@H](NC(=O)[C@H](C)NC(=O)[C@H](CC(=O)O)NC(=O)[C@H](CO)NC(=O)[C@@H](N)Cc1c[nH]cn1)C(C)C)[C@@H](C)O)[C@@H](C)O)C(C)C)C(=O)N[C@@H](CC(C)C)C(=O)N[C@@H](CC(N)=O)C(=O)O [AVIPTADIL]	> 46 µM
COc1ccc(C(=O)CC(=O)c2ccc(C(C)(C)C)cc2)cc1 [AVOBENZONE]	> 46 µM
[N-]=[N+]=CC(=O)OCC(N)C(=O)O (stereo not drawn) [AZASERINE]	> 46 µM
Cl.CN1CCCC(CC1)N2\N=C(CC3=CC=C(Cl)C=C3)/C4=CC=CC=C4C2=O (stereo not drawn) [AZELASTINE HYDROCHLORIDE]	> 46 µM
N[S+](=O)([O-])c1cc(-c2nnn[nH]2)c(NCc2cccs2)cc1Cl [AZOSEMIDE]	> 46 µM
CC(=O)O[C@H]1CC[C@]\2(C)C3CC[C@@]\4(C)C(C\C=C4C5=CC=CN=C5)C3C\C=C2C1 (stereo partly drawn) [Abiraterone Acetate]	> 46 µM
C[C@H]1OC(OC2C(O)[C@@H](O)C(OC3C(O)[C@@H](O)C(O)O[C@@H]3CO)O[C@@H]2CO)[C@H](O)C(O)C1N[C@H]1C=C(CO)[C@@H](O)[C@H](O)C1O (stereo partly drawn) [Acarbose]	> 46 µM
CCCC(=O)Nc1ccc(OC[C@@H](O)CNC(C)C)c(C(C)=O)c1 [Acebutolol hydrochloride]	> 46 µM
O=C(O)COC(=O)Cc1ccccc1Nc1c(Cl)cccc1Cl [Aceclofenac]	> 46 µM
COc1ccc2c(c1)c(CC(=O)OCC(=O)O)c(C)n2C(=O)c1ccc(Cl)cc1 [Acemetacin]	> 46 µM
CC(=O)C[C@H](C1=CC=C(C=C1)[N+]([O-])=O)\C2=C(/O)C3=C(OC2=O)C=CC=C3 [Acenocoumarol]	> 46 µM
CC/1=C/C(=O)[N-][S](=O)(=O)O1 [Acesulfame K]	> 46 µM
CCOC(C)OCC [Acetal (Acetaldehyde diethyl acetal)]	> 46 µM
CN(C)C(=O)CNC(=O)Cc1ccccc1 [Acetamide, N,N-dimethyl-2-(2-phenylacetamido)-]	> 46 µM

Structure (SMILES)	IC50 of cell viability
CC(=O)Nc1ccc(O)cc1 [Acetaminophen (4-hydroxyacetanilide)]	> 46 µM
CC(=O)Nc1ccccc1 [Acetanilide]	> 46 µM
CC(=O)Nc1nnc([S+](N)(=O)[O-])s1 [Acetazolamide]	> 46 µM
CC(=O)c1ccc([S+](=O)([O-])NC(=O)NC2CCCCC2)cc1 [Acetohexamide]	> 46 µM
CC(C)=O [Acetone]	> 46 µM
CC(=O)c1ccc2c(c1)N(CCCN(C)C)c1ccccc1S2 [Acetopromazine maleate salt]	> 46 µM
CO[C@@H]1[C@@H](OC2OC(C)C(OC3CC(C)(O)C(O)C(C)O3)C(N(C)C)C2O)[C@@H](CC=O)C[C@@H](C)[C@@H](OC2CCC(N(C)C)C(C)O2)/C=C/C=C/C[C@@H](C)OC(=O)C[C@H]1OC(C)=O (stereo partly drawn) [Acetyl Spiramycin]	> 46 µM
CC(=O)OCC[N+](C)(C)C [Acetylcholine chloride]	> 46 µM
CC(=O)Oc1ccccc1C(=O)O [Acetylsalicylic acid]	> 46 µM
CCC(Cc1c(I)cc(I)c(O)c1I)C(=O)O (stereo not drawn) [Acide iophenoique]	> 46 µM
O=C(O)c1ccc[n+]([O-])c1 [Acide oxiniacique]	> 46 µM
O=P([O-])(O)C(O)(Cc1cccnc1)P(=O)([O-])O [Acide risedronique]	> 46 µM
O=C([O-])c1cc(Oc2ccc(C(F)(F)F)cc2Cl)ccc1[N+](=O)[O-] [Acifluorfen sodium]	> 46 µM
CC1(O\C(=C/C1=O)C(O)=O)C2=CC=CC=C2 (stereo not drawn) [Acifran]	> 46 µM
O=C(O)C(=O)Nc1cccc(-c2nnn[nH]2)c1 [Acitazanolast]	> 46 µM
CC(=O)O[C@@H](C)C(=O)OCC[N+](C)(C)C.CC(=O)O[C@@H](C)C(=O)OCC[N+](C)(C)C.O=S(=O)([O-])c1cccc2c(S(=O)(=O)[O-])cccc12 [Aclatonium Napadisilate]	> 46 µM
CC(=O)O[C@@H](C)C(=O)OCC[N+](C)(C)C.CC(=O)O[C@@H](C)C(=O)OCC[N+](C)(C)C.O=S(=O)([O-])c1cccc2c(S(=O)(=O)[O-])cccc12 [Aclatonium napadisilate]	> 46 µM
O=C(O)COc1ccccc1/C=N/NC(=O)c1ccncc1 [Aconiazida]	> 46 µM
CC(=O)OCC(=O)Nc1cc(C#N)cc(NC(=O)COC(C)=O)c1Cl [Acreozast]	> 46 µM
Cc1ccc(/C(=C\CN2CCCC2)c2cccc(/C=C/C(=O)O)n2)cc1 [Acrivastine]	> 46 µM

Structure (SMILES)	IC50 of cell viability
CC(=O)Nc1ccc(CC(=O)O)cc1 [Actarit]	> 46 µM
CCOc1ccc(S(=O)(=O)O)c2cccnc12 [Actinoquinolum]	> 46 µM
N\C1=N\C2=C(N=C[N]2COCCO)C(=O)N1 [Acyclovir]	> 46 µM
O=C(COc1ccc(Cl)cc1)OCCNC12C[C@H]3C[C@@H](C1)C[C@@H](C2)C3 [Adafenoxate]	> 46 µM
COc1ccc(-c2ccc3cc(C(=O)O)ccc3c2)cc1C12CC3CC(CC(C3)C1)C2 [Adapalene]	> 46 µM
Nc1ncnc2c1ncn2CCOCP(=O)(O)O [Adefovir]	> 46 µM
Nc1ncnc2c1ncn2[C@@H]1O[C@@H]2COP(=O)(O)O[C@H]2[C@H]1O [Adenosine 3',5'-cyclic monophosphate]	> 46 µM
O=S([O-])CNc1ccc([S+](=O)([O-])c2ccc(NCS(=O)[O-])cc2)cc1 [Adesulfone sodium]	> 46 µM
O=C(O)CCCCC(=O)O [Adipic acid]	> 46 µM
CNCC(=O)c1ccc(O)c(O)c1 [Adrenone]	> 46 µM
COc1cccc2c1C(=O)c1c(O)c3c(c(O)c1C2=O)C[C@](O)(C(=O)CO)C[C@@H]3O[C@H]1C[C@H](N)[C@@H](O)[C@H](C)O1 [Adriamycin-DNA hydrochloride]	> 46 µM
CC[C@@H]1[C@@H]2C[C@H]3[C@H]4N(C)c5ccccc5[C@@]45C[C@H]([C@H]2[C@H]5O)[N@@]3[C@H]1O [Ajmaline]	> 46 µM
C=CCN1C(=O)C(CC(C)C)NC1=S (stereo not drawn) [Albutoin]	> 46 µM
C=CCOc1ccc(CC(=O)O)cc1Cl [Alclofenac]	> 46 µM
CCC(=O)OCC(=O)[C@@]1(OC(=O)CC)[C@H](C)C[C@@H]2[C@@H]3[C@H](Cl)C\C4=C\C(=O)\C=C/[C@@]4(C)[C@H]3[C@@H](O)C[C@@]12C [Alclometasone dipropionate]	> 46 µM
C=CC[N@@H+]1/C(=C/CO)[C@@H]2C[C@H]3[C@H]1CC[C@]31c3ccccc3N3/C=C4/[C@@H]5C[C@@H]6[C@H](CC[C@@]67c6ccccc6N(/C=C\2[C@H]31)[C@@H]47)[N@@H+](CC=C)/C5=C\CO [Alcuronium chloride]	> 46 µM
NCCCC(O)(P(=O)(O)O)P(=O)(O)O [Alendronate sodium]	> 46 µM
CC(=O)OCC(=O)[C@@H]1CC[C@@H]2[C@H]3CC[C@H]4C[C@@H](O)CC[C@]4(C)[C@@H]3C(=O)C[C@]21C [Alfadolone acetate]	> 46 µM

— the supplement of paper PMC3974653
